Source: patent publication US20220105119A1, “DELIVERY OF AEROSOLIZED MICROMOLAR COMPOSITION CONCENTRATIONS” (Amcyte Pharma Inc., priority 2020, published 2022)
Where “and” joins values, the source holds several entries; their conditions need not be identical. Equal entries are not always repeated. Where two headings read alike, the source gives them in different places.

Key:
[1] = Ali 2011; cited from earlier work
[2] = cited from earlier work; for Maximum Plasma Concentration: single oral dose; for Time elapsed to reach maximum concentration: after ingestion
SARS CoV 2 [3] = format: cell-based
[4] = in vivo; cited from earlier work
SARS CoV 2 [5] = settings: cited from earlier work
[6] = Related substances by HPLC after 1 week at 50° C.; format: physicochemical; settings: formulations after 1 week at 50° C., drug substance lot as used
Source text: HPLC method used renders chromatograms like the one depicted in FIG. 1 for drug substance and drug product. […] The rest of the peaks may be attributed to related substances. Related substances are substances structurally similar to the drug substance. Some of them come from synthesis impurities and are not increased during shelf life because they cannot form from degradation of the drug substance. Others are degradation products. […] (an extremely high stress condition for an MDI).

[7] = calculated
[8] = system: flaviviruses (yellow fever virus, West Nile virus, dengue virus, Japanese encephalitis virus, tick-borne encephalitis virus); settings: other viruses; cited from earlier work

Ivermectin
forced degradation studies [1]: susceptible to oxidation and hydrolysis | Maximum Plasma Concentration ([2]; 150 μg/kg (fasted), Baraka 1996): aprox. 55 ng/mL | Maximum Plasma Concentration ([2]; 200 μg/kg (fed), Schulz 2018): 40.1 ng/mL | Maximum Plasma Concentration ([2]; 600 μg/kg (children, fed), Schulz 2019): 66.1 ng/mL | Maximum Plasma Concentration ([2]; 30 mg (fed), Guzzo 2002): 260.5 ng/mL | Maximum Plasma Concentration ([2]; 60 mg (fasted), Guzzo 2002): 186.2 ng/mL and 165.2 to 186.2 ng/mL | Maximum Plasma Concentration ([2]; 90 mg (fasted), Guzzo 2002): 158.1 ng/mL | Maximum Plasma Concentration ([2]; 120 mg (fasted), Guzzo 2002): 247.8 ng/mL | Time elapsed to reach maximum concentration ([2]; adults): 4 to 5 h | Time elapsed to reach maximum concentration ([2]; children): 6 to 7 h | IC50 as mass concentration (SARS CoV 2 [3]): 1.7 µg/mL | Oral bioavailability [4]: 40-50% | IC50 (SARS CoV 2 [5]; Vero cells culture, read-out: IC50, SARS CoV 2 replication): 2000 nM and ~2000 nM | reduction in viral RNA in reference to placebo (SARS CoV 2 [5]; at 5 μM, 48 hours after one single application): 5,000 fold | viral RNA reduction (SARS CoV 2 [5]; at a concentration of (equivalent to ca. 4.4 μg/mL)): ca. 5,000 times | Related substance RRT 1.42 ([6]; alkaline degradation product): 2.9 % total HPLC area | Related substance RRT 0.39 [6]: 0.3 % total HPLC area | Related substance RRT 0.40 [6]: 0.3 % total HPLC area | Related substance RRT 0.46 [6]: 0.5 % total HPLC area | Related substance RRT 0.78 [6]: 0.1 % total HPLC area | Related substance RRT 1.52 [6]: 0.7 % total HPLC area | concentration in nasal airway surface liquid ([7]; 100 μg per nostril in a 50-μL shot, liquid volume 50-375 μL): 533 µg/mL | immediate concentration in saliva ([7]; one 50-μL shot containing 100 μg, 0.8 mL saliva): 125 µg/mL | concentration range of antiviral activity [8]: 0.003 to 10 µM
